Data taken from ChEMBL document CHEMBL4665782, “Furostanol Saponins from Trillium tschonoskii Promote the Expansion of Human Cord Blood Hematopoietic Stem and Progenitor Cells” (2020).
Active and inactive are the calls of the source. The rule behind the calls is not given here.

Tests used:
[1] = test system: CD34-positive (myeloid/lymphoid) cell; assay: Expansion-promoting activity against human CD34+ cells assessed as increase in Lin-CD34+CD38-CD45RA-CD49f-CD90- multipotent progenitor cells measured after 4 days by FACS analysis; assay type: functional, cell-based
[2] = test system: CD34-positive (myeloid/lymphoid) cell; assay: Expansion-promoting activity against human CD34+cells assessed as increase in CD34+/CD38- cells measured after 4 days by FACS analysis; assay type: functional, cell-based
[3] = Expansion of human CD34+cells measured after 4 days by FACS analysis; assay type: functional, CD34-positive (myeloid/lymphoid) cell
[4] = Expansion-promoting activity against human CD34+ cells assessed as increase in Lin-CD34+CD38-CD45RA-CD49f+CD90- multipotent progenitor cells measured after 4 days by FACS analysis relative to control; assay type: functional, CD34-positive (myeloid/lymphoid) cell

SMILES	Activity [1]	Activity [2]	fold change (FC) [3]	fold change (FC) [4]
C[C@H](CCC(=O)[C@@H](C)C1C(=O)C[C@H]2[C@@H]3CC=C4C[C@@H](O[C@@H]5O[C@H](CO)[C@@H](O[C@@H]6O[C@@H](C)[C@H](O)[C@@H](O)[C@H]6O)[C@H](O)[C@H]5O[C@@H]5O[C@@H](C)[C@H](O)[C@@H](O)[C@H]5O)CC[C@]4(C)[C@H]3CC[C@]12C)CO[C@@H]1O[C@H](CO)[C@@H](O)[C@H](O)[C@H]1O (some centres undefined)	Active	Active	–	–
CC1=C2[C@](O)(C[C@H]3[C@@H]4C[C@@H](O)[C@@]5(O)C[C@@H](O[C@@H]6O[C@H](CO)[C@@H](O[C@@H]7O[C@@H](C)[C@H](O[C@@H]8O[C@@H](C)[C@H](O)[C@@H](O)[C@H]8O)[C@@H](O)[C@H]7O)[C@H](O)[C@H]6O[C@@H]6O[C@@H](C)[C@H](O)[C@@H](O)[C@H]6O)CC[C@]5(C)[C@H]4CC[C@]23C)C(C[C@@H](C)CO[C@@H]2O[C@H](CO)[C@@H](O)[C@H](O)[C@H]2O)C1=O (some centres undefined)	Active	Active	6.7	1.3
C[C@H](CC[C@@]1(O)OC2C[C@H]3[C@@H]4CC=C5C[C@@H](O[C@@H]6O[C@H](CO)[C@@H](O[C@@H]7O[C@H](CO)[C@H](O)[C@@H](O)[C@H]7O)[C@H](O)[C@H]6O[C@@H]6O[C@@H](C)[C@H](O)[C@@H](O)[C@H]6O)CC[C@]5(C)[C@H]4CC[C@]3(C)[C@@]2(O)[C@@H]1C)CO[C@@H]1O[C@H](CO)[C@@H](O)[C@H](O)[C@H]1O (some centres undefined)	Active	Active	8.8	1.9
C[C@H](CC[C@@]1(O)OC2C[C@H]3[C@@H]4C[C@@H](O)[C@@]5(O)C[C@@H](O[C@@H]6O[C@H](CO)[C@@H](O[C@@H]7O[C@@H](C)[C@H](O[C@@H]8O[C@@H](C)[C@H](O)[C@@H](O)[C@H]8O)[C@@H](O)[C@H]7O)[C@H](O)[C@H]6O[C@@H]6O[C@@H](C)[C@H](O)[C@@H](O)[C@H]6O)CC[C@]5(C)[C@H]4CC[C@]3(C)[C@@]2(O)[C@@H]1C)CO[C@@H]1O[C@H](CO)[C@@H](O)[C@H](O)[C@H]1O (some centres undefined)	Active	–	8.4	1.8
C/C(C(=O)CC[C@@H](C)CO[C@@H]1O[C@H](CO)[C@@H](O)[C@H](O)[C@H]1O)=C1/C(=O)C[C@H]2[C@@H]3CC=C4C[C@@H](O[C@@H]5O[C@H](CO)[C@@H](O)[C@H](O)[C@H]5O[C@@H]5O[C@@H](C)[C@H](O)[C@@H](O)[C@H]5O)CC[C@]4(C)[C@H]3CC[C@]12C	Active	Active	5.7	1
C/C(C(=O)CC[C@@H](C)CO[C@@H]1O[C@H](CO)[C@@H](O)[C@H](O)[C@H]1O)=C1/C(=O)C[C@H]2[C@@H]3CC=C4C[C@@H](O[C@@H]5O[C@H](CO)[C@@H](O[C@@H]6O[C@@H](C)[C@H](O)[C@@H](O)[C@H]6O)[C@H](O)[C@H]5O[C@@H]5O[C@@H](C)[C@H](O)[C@@H](O)[C@H]5O)CC[C@]4(C)[C@H]3CC[C@]12C	Active	–	–	–
C/C(C(=O)CC[C@@H](C)CO[C@@H]1O[C@H](CO)[C@@H](O)[C@H](O)[C@H]1O)=C1/C(=O)C[C@H]2[C@@H]3C(=O)C=C4C[C@@H](O[C@@H]5O[C@H](CO)[C@@H](O[C@@H]6O[C@@H](C)[C@H](O)[C@@H](O)[C@H]6O)[C@H](O)[C@H]5O[C@@H]5O[C@@H](C)[C@H](O)[C@@H](O)[C@H]5O)CC[C@]4(C)[C@H]3CC[C@]12C	–	Active	–	–
CC1=C2[C@](O)(C[C@H]3[C@@H]4C[C@@H](O)[C@@]5(O)C[C@@H](O[C@@H]6O[C@H](CO)[C@@H](O[C@@H]7O[C@@H](C)[C@H](O)[C@@H](O)[C@H]7O)[C@H](O)[C@H]6O[C@@H]6O[C@@H](C)[C@H](O)[C@@H](O)[C@H]6O)CC[C@]5(C)[C@H]4CC[C@]23C)C(C[C@@H](C)CO[C@@H]2O[C@H](CO)[C@@H](O)[C@H](O)[C@H]2O)C1=O (some centres undefined)	Active	Active	–	–
Cc1c(CC[C@@H](C)CO[C@@H]2O[C@H](CO)[C@@H](O)[C@H](O)[C@H]2O)oc2c1[C@@]1(C)CC[C@H]3[C@@H](CC=C4C[C@@H](O[C@@H]5O[C@H](CO)[C@@H](O)[C@H](O)[C@H]5O[C@@H]5O[C@@H](C)[C@H](O)[C@@H](O)[C@H]5O)CC[C@@]43C)[C@@H]1C2	Active	Active	5.5	0.9
Cc1c(CC[C@@H](C)CO[C@@H]2O[C@H](CO)[C@@H](O)[C@H](O)[C@H]2O)oc2c1[C@@]1(C)CC[C@H]3[C@@H](C[C@@H](O)[C@@]4(O)C[C@@H](O[C@@H]5O[C@H](CO)[C@@H](O[C@@H]6O[C@@H](C)[C@H](O[C@@H]7O[C@@H](C)[C@H](O)[C@@H](O)[C@H]7O)[C@@H](O)[C@H]6O)[C@H](O)[C@H]5O[C@@H]5O[C@@H](C)[C@H](O)[C@@H](O)[C@H]5O)CC[C@]34C)[C@@H]1C2	Active	Active	7.7	1.6
C[C@H](CCC(=O)[C@@H](C)C1C(=O)C[C@H]2[C@@H]3CC=C4C[C@@H](O[C@@H]5O[C@H](CO)[C@@H](O)[C@H](O)[C@H]5O[C@@H]5O[C@@H](C)[C@H](O)[C@@H](O)[C@H]5O)CC[C@]4(C)[C@H]3CC[C@]12C)CO[C@@H]1O[C@H](CO)[C@@H](O)[C@H](O)[C@H]1O (some centres undefined)	Active	Active	8.4	1.8
C[C@H](CC[C@@]1(O)OC2C[C@H]3[C@@H]4C[C@@H](O)[C@@]5(O)C[C@@H](O[C@@H]6O[C@H](CO)[C@@H](O)[C@H](O)[C@H]6O[C@@H]6O[C@@H](C)[C@H](O)[C@@H](O)[C@H]6O)CC[C@]5(C)[C@H]4CC[C@]3(C)[C@@]2(O)[C@@H]1C)CO[C@@H]1O[C@H](CO)[C@@H](O)[C@H](O)[C@H]1O (some centres undefined)	Active	–	–	–
